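Step 1: Grow cells in 96-well plates. Step 2: Expose to compound for 48 hours at 5 concentrations. Step 3: Interpolate endpoints linearly; if unreached, use highest concentration. GI50 marks 50% less growth. TGI denotes the concentration required for complete inhibition of growth.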
Assays:
Test in all cases: NCI-60 cell line screen, 48 h
[1] = system: 786-0 renal
[2] = system: A498 renal
[3] = system: A549 NSCLC
[4] = system: ACHN renal
[5] = system: BT-549 breast
[6] = system: CAKI-1 renal
[7] = system: CCRF-CEM leukemia
[8] = system: COLO 205 colon
[9] = system: DU-145 prostate
[10] = system: EKVX NSCLC
[11] = system: HCC-2998 colon
[12] = system: HCT-116 colon
[13] = system: HCT-15 colon
[14] = system: HL-60(TB) leukemia
[15] = system: HOP-62 NSCLC
[16] = system: HOP-92 NSCLC
[17] = system: HS 578T breast
[18] = system: HT29 colon
[19] = system: IGROV1 ovarian
[20] = system: K-562 leukemia
[21] = system: KM12 colon
[22] = system: LOX IMVI melanoma
[23] = system: M14 melanoma
[24] = system: MALME-3M melanoma
[25] = system: MCF7 breast
[26] = system: MDA-MB-231 breast
[27] = system: MDA-MB-435
[28] = system: MOLT-4 leukemia
[29] = system: NCI-H226 lung

**Q.** With O=C1/C(=C/c2ccc(O)c(O)c2)COc2ccc(-c3ccccc3)cc21 as the compound, how does the GI50 [1] read?
**A.** The GI50 was 1940 nM.

**Q.** What about the TGI [1] of the same compound?
**A.** The TGI was 5.55 µM.

**Q.** What about the GI50 [2] of the same compound?
**A.** Its GI50 is 2200 nM.

**Q.** And the TGI [2]?
**A.** Its TGI is 7.71 µM.

**Q.** And the GI50 [3]?
**A.** Its GI50 is 3.16 µM.

**Q.** What about the TGI [3] of the same compound?
**A.** The TGI was 18.1 µM.

**Q.** And the GI50 [4]?
**A.** The GI50 was 1530 nM.

**Q.** And the TGI [4]?
**A.** The TGI was 3.22 µM.

**Q.** What about the GI50 [5] of the same compound?
**A.** Its GI50 is 2370 nM.

**Q.** What about the TGI [5] of the same compound?
**A.** Its TGI is 10.6 µM.

**Q.** And the GI50 [6]?
**A.** Its GI50 is 3.66 µM.

**Q.** What about the TGI [6] of the same compound?
**A.** The TGI was 33.2 µM.

**Q.** And the GI50 [7]?
**A.** Its GI50 is 329 nM.

**Q.** What about the GI50 [8] of the same compound?
**A.** Its GI50 is 732 nM.

**Q.** And the TGI [8]?
**A.** Its TGI is 2150 nM.

**Q.** What about the GI50 [9] of the same compound?
**A.** Its GI50 is 1770 nM.

**Q.** What about the TGI [9] of the same compound?
**A.** Its TGI is 4.48 µM.

**Q.** What about the GI50 [10] of the same compound?
**A.** Its GI50 is 5.39 µM.

**Q.** What about the TGI [10] of the same compound?
**A.** The TGI was 18.1 µM.

**Q.** What about the GI50 [11] of the same compound?
**A.** The GI50 was 1490 nM.

**Q.** What about the TGI [11] of the same compound?
**A.** Its TGI is 2980 nM.

**Q.** What about the GI50 [12] of the same compound?
**A.** Its GI50 is 1230 nM.

**Q.** What about the TGI [12] of the same compound?
**A.** Its TGI is 2650 nM.

**Q.** And the GI50 [13]?
**A.** Its GI50 is 697 nM.

**Q.** What about the TGI [13] of the same compound?
**A.** Its TGI is 2240 nM.

**Q.** What about the GI50 [14] of the same compound?
**A.** The GI50 was 435 nM.

**Q.** What about the TGI [14] of the same compound?
**A.** The TGI was 4.47 µM.

**Q.** And the GI50 [15]?
**A.** The GI50 was 3.55 µM.

**Q.** What about the TGI [15] of the same compound?
**A.** Its TGI is 11.6 µM.

**Q.** And the GI50 [16]?
**A.** The GI50 was 1740 nM.

**Q.** And the TGI [16]?
**A.** Its TGI is 8.59 µM.

**Q.** What about the GI50 [17] of the same compound?
**A.** The GI50 was 3.21 µM.

**Q.** What about the TGI [17] of the same compound?
**A.** The TGI was 13.9 µM.

**Q.** What about the GI50 [18] of the same compound?
**A.** The GI50 was 1500 nM.

**Q.** And the TGI [18]?
**A.** The TGI was 3.16 µM.

**Q.** What about the GI50 [19] of the same compound?
**A.** The GI50 was 1390 nM.

**Q.** What about the TGI [19] of the same compound?
**A.** The TGI was 6.41 µM.

**Q.** What about the GI50 [20] of the same compound?
**A.** The GI50 was 1850 nM.

**Q.** What about the TGI [20] of the same compound?
**A.** Its TGI is 8.31 µM.

**Q.** What about the GI50 [21] of the same compound?
**A.** The GI50 was 1420 nM.

**Q.** What about the TGI [21] of the same compound?
**A.** The TGI was 3.39 µM.

**Q.** And the GI50 [22]?
**A.** Its GI50 is 1430 nM.

**Q.** What about the TGI [22] of the same compound?
**A.** Its TGI is 2840 nM.

**Q.** And the GI50 [23]?
**A.** The GI50 was 2020 nM.

**Q.** And the TGI [23]?
**A.** Its TGI is 5.28 µM.

**Q.** And the GI50 [24]?
**A.** The GI50 was 1700 nM.

**Q.** And the TGI [24]?
**A.** Its TGI is 5.55 µM.

**Q.** And the GI50 [25]?
**A.** Its GI50 is 666 nM.

**Q.** What about the TGI [25] of the same compound?
**A.** The TGI was 5.06 µM.

**Q.** What about the GI50 [26] of the same compound?
**A.** The GI50 was 2260 nM.

**Q.** What about the TGI [26] of the same compound?
**A.** Its TGI is 8.47 µM.

**Q.** What about the GI50 [27] of the same compound?
**A.** Its GI50 is 1170 nM.

**Q.** What about the TGI [27] of the same compound?
**A.** Its TGI is 3.48 µM.

**Q.** And the GI50 [28]?
**A.** Its GI50 is 531 nM.

**Q.** What about the TGI [28] of the same compound?
**A.** The TGI was 4.73 µM.

**Q.** And the GI50 [29]?
**A.** The GI50 was 4.15 µM.

**Q.** What about the TGI [29] of the same compound?
**A.** The TGI was 32.8 µM.

From PubChem BioAssay (NCI)
